Literature values as cited in patent US20190037897A1, “AMORPHOUS COOLER DISPERSION COMPOSITION” (International Flavors & Fragrances Inc., priority 2016, published 2019).

Conditions: compared to menthol (as 100)

Point of comparison: `CC1CCC(C(C)C)C(O)C1` (stereo not shown) [menthol], relative cooling strength 100. Against it:
- COc1ccc(NC(=O)[C@@H]2C[C@H](C)CC[C@H]2C(C)C)cc1 [WS-12, (1R,2S,5R)-N-(4-Methoxyphenyl)-p-menthanecarboxamide] — higher, 150
- CCNC(=O)C1CC(C)CCC1C(C)C (stereo not shown) [WS-3, N-Ethyl-p-menthane-3-carboxamide] — higher, 150
- Ethyl 3-(p-menthane-3-carboxamido)acetate [WS-5] — higher, 400
